These are literature values, as cited in patent publication US20040131694A1, “Pharmaceutical composition for the medical treatment of the benign prostatic hyperplasia, its preparation method and its therapeutic application” (H.P.B. S.A., priority 2002, published 2004).

In the series the test system is Bladder outlet obstruction due to Benign Prostatic Hyperplasia.
[1] abbreviates: Up to 24 weaks of treatment, Tammela and Kontturi 1993.

Turning to `CC(C)(C)NC(=O)[C@H]1CC[C@H]2[C@@H]3CC[C@H]4NC(=O)C=C[C@]4(C)[C@H]3CC[C@]12C` [Finasteride], under setting [1], the Daytime frequency was 1.4, the Dysuria is recorded as 0.4, the Hesitancy is listed as 0.5 and the Intermittence was 0.7. Further, under setting [1], the Nocturia is given as 1.5, the “Prostatic specific antigen (ng. %)” value is 2.9 ng. %, the “Prostatic volume (grs.)” value is 35 gr and the “Q max.” value is 10.3 mL/s. Under setting [1], the “Residual urine volume (ml.)” value is recorded as 76 cc, the “Sensation of incomplete Voiding” value is 0.9, the Terminal dribbling is listed as 0.4 and the “Total points (I-PSS)” value is reported as 7.1 points. Besides, under setting [1], the Urgency is listed as 0.7 and the Weak stream is listed as 0.6. For the same molecule, the Residual effect result (treatment must be continuous) is reported as “none”.
